Data: patent US7348304B1, “Fragrance material” (priority 2004, dated 2008)
Like-named read-outs stand apart in the source and are kept apart here.

Tests used:
[1] = prior-art characterisation; cited from earlier work
[2] = Odor character / fragrance assessment of the material and fractions
subjects = assay: Determination of approximate aqueous odor threshold (paired beakers, sniffing); format: in vivo; set-up: key: “X” means correct positive identification; “-” means unable to identify
Protocol: 2 mg of the compound of the invention according to Example I were dissolved in 1.0 ml ethanol and serial dilutions made in deionized water to give test solutions of the compound at concentrations of 100, 20, 4, and 1 ppb.
Pairs of loosely-covered beakers were presented to three subjects, one beaker containing deionized water and the other a test solution. The subjects were asked to identify the beaker containing the test solution by removing the covers and sniffing, with the following results (“X” means correct positive identification, “-” means unable to identify): […]

[3] = Assessment of stability of the compound (olfactory assessment of stored aqueous solution); format: physicochemical
Protocol: 50 ml of a 250-ppb aqueous solution of the compound of the invention according to Example I was held in a covered 100 ml glass weighing bottle for seven months. Environmental conditions were ambient room light (fluorescent and indirect sunlight during daytime; dark at night) and temperature (16-26° C.). The bottle was opened approximately bi-weekly, admitting fresh air and allowing olfactory assessment of the odor strength.

In the case of `CCC(=O)C1CCC=CCCC=CCCC1` (centres unmarked) [1-(4,8-cyclododecadienyl)-1-propanone], the odor [1] is listed as “cedarwood, amber, pepper”.

For `CC(=O)/C=C/[C@@H]1C(C)=CCCC1(C)C` [(S)-alpha-ionone], the odor [1] is given as “cedarwood, raspberry”.

In the case of `C=C(C[C@H](C)CO)[C@H]1CC=C(C)C1(C)C` [(−)-(1′R,2S)-2-methyl-4-(2′,2′,3′-trimethyl-3′-cyclopenten-1′-yl)-4-penten-1-ol], the odor [1] is given as “sandalwood; cedar”.

In the case of `C[C@H]1C(=O)C[C@@H]2[C@@H]3[C@H]1[C@@]2(C)CCCC3(C)C` [The C-9 epimer, (1R,2S,7R,8R,9R)-2,6,6,9-tetramethyltricyclo-[5.4.0.0^2,8]undecan-10-one, reference compound], the odor character [2] is reported as “no distinctive or useful fragrance properties”.

In the case of `CC1CCC2C(C)(C)C3CC12CC1OC13C` (centres unmarked) [cedrene epoxide], the odor [1] is given as “woody-amber-camphor”.

In the case of `CC(=O)O[C@]1(C)CC[C@@]23C[C@@H]1C(C)(C)[C@@H]2CC[C@H]3C` [cedryl acetate], the odor [1] is listed as “woody-vetiver”.

In the case of `CO[C@@]1(C)CC[C@@]23C[C@@H]1C(C)(C)[C@@H]2CC[C@H]3C` [methyl cedryl ether], the odor [1] is listed as “woody-amber”.

In the case of `CC(=O)C1=C(C)[C@@H]2C[C@@]3(C1)[C@H](C)CC[C@H]3C2(C)C` [methyl cedryl ketone], the odor [1] is listed as “musk-woody”.

For `C[C@@H]1C(=O)C[C@@H]2[C@@H]3[C@H]1[C@@]2(C)CCCC3(C)C` [the compound of the invention, (1R,2S,7R,8R,9S)-2,6,6,9-tetramethyltricyclo[5.4.0.0^2,8]undecan-10-one], the “identification of the beaker containing the test solution” value (shortened to “identification”) (subjects; 1 ppb in deionized water, Subject 3) was “X”, the “identification” value (subjects; 4 ppb in deionized water, Subject 1) was “X” and the “identification” value (subjects; 4 ppb in deionized water, Subject 3) was “X”. The “identification” value (subjects; 20 ppb in deionized water, Subject 1) was “X”, the “identification” value (subjects; 20 ppb in deionized water, Subject 3) was “X” and the “identification” value (subjects; 100 ppb in deionized water, Subject 1) was “X”. The “identification” value (subjects; 100 ppb in deionized water, Subject 2) was “X”, the “identification” value (subjects; 100 ppb in deionized water, Subject 3) was “X” and the “odor intensity after storage” value ([3]; 250-ppb aqueous solution, seven months, ambient room light, 16-26° C., opened approximately bi-weekly) was “No decrease in odor intensity”. The stability ([3]; action of light, oxygen, and moisture) was “stable against the action of light, oxygen, and moisture”, the odor character ([2]; listed as Example III) was “Cedar, woody, cigar box, tobacco, slightly animal—civet. Long-lasting in dry-down” and the odor character ([2]; listed as The compound) was “intense, pleasant and characteristic cedar wood odor”.
